Results on 21 molecules are retold here after US7087626B2, “Pyrrole derivatives as pharmaceutical agents” (Eli Lilly and Company, priority 2001, dated 2006).

For test [1], the system named is TGF-β dependent luciferase production in Mv1Lu C1 cells (p3TP-Lux reporter). In words: MV1LU p3TP-Lux assay. The test is classed as cell-based. Particulars: TGF-β1 10 pM, 16-20 hrs. An excerpt:
A stable Mv1Lu clone (C1) containing the p3TP-Lux reporter was created by standard transfection and puromycin selection protocols. This stable clone was used to screen the example compounds for their ability to inhibit TGF-β dependent luciferase production as briefly described below: • 1. Plated Mv1Lu C1 cells in Wallac™ Black Isoplates • 2. Allowed cells to adhere overnight. • 3. Removed media and replaced with 0.5% FBS DMEM media • 4. Added the compound dilution series in 0.5% FBS/DMEM containing 1% DMSO such that the final compound concentration ranged from 20 uM to 0.1 nM and the final DMSO concentration was 0.2%. • 5. Incubated at 37° C./5% CO2 for 2 hrs. • 6. Added 0.5% FBS/DMEM as control or TGF-β1 diluted in 0.5% FBS/DMEM (final concentration of 10 pM) to the −/+ TGF-β wells respectively • 7. Incubated for 16-20 hrs. at 37° C./5% CO2 • 8. Removed media and rinsed 1× with PBS. • 9. Removed PBS and lysed the cells with 1× Passive Lysis Buffer (Promega) at room temperature. • 10. Counted relative luciferase activity on the MicroBeta JET by injecting Luciferase Assay Reagent II (PROMEGA).
The use of the above assay in measuring TGF-β responsive activity is described in Wrana, et al. Cell 71: 1003-1014 (1992).

A further test deals with T1, p38α/SAPK2α (Homo sapiens, UniProt Q16539).
T1 construct: purchased Upstate Biotechnology 14-251
T1 sequence (Q16539 whole entry): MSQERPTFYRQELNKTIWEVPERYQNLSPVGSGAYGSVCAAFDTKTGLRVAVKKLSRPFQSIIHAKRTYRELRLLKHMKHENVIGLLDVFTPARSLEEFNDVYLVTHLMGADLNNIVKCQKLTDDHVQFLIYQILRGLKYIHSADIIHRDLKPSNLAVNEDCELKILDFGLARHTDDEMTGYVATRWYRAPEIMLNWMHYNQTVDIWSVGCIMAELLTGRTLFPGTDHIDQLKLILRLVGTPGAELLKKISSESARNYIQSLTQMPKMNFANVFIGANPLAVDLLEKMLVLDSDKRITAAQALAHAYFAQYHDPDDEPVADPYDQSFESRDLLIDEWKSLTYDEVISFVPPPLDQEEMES
In words: p38α in vitro kinase assay. The test is classed as biochemical. Particulars: 5 nM p38α, 62.5 uM EGFR substrate, 100 uM ATP, 30° C., 40 min. The procedure:
p38α in vitro Kinase Assay
Active p38α/SAPK2α was purchased from Upstate Biotechnology (cat#14-251). A known p38α substrate from EGFR was used in the assay (Young, et al. (1997) JBC 272: 12116-12121).
Reactions were performed in 1× kinase buffer (25 mM Tris-HCl pH 7.5, 5 mM β-glycerophosphate, 2 mM DTT, 0.1 mM Na3VO4, 10 mM MgCl2, 1 uM Microcystin) with 5 nM p38α, 62.5 uM substrate, 40 uM to 0.2 nM compound dilution series in 1×KB/16% DMSO (final 4% DMSO concentration). Reactions were started by addition of 100 uM ATP (final concentration) with 1 uCi ^33P-γ-ATP in 1×KB and incubated at 30° C. for 40 min. Reactions were stopped with H3PO4 and quantitated on Millipore PH phosphocellulose filter plates by liquid scintillation counting on a MicroBeta JET.

Test [2] addresses T2, TGF-β Type II (RII WT) receptor (Homo sapiens, UniProt P37173).
T2 construct: The 6×-HIS tagged cytoplasmic kinase domain of each receptor was expressed and purified from Sf9 insect cell lysates; 6xHis; made in house; host or cells: Sf9 insect cells
T2 sequence (P37173 244-544 limits assumed): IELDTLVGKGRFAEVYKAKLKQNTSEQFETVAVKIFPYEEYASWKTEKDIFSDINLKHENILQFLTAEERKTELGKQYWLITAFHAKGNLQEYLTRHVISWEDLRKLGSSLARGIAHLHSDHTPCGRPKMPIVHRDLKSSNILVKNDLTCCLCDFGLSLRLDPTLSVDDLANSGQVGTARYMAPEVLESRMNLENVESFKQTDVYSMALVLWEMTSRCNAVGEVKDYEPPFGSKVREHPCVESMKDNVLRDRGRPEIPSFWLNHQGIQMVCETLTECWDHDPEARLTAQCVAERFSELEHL
The test can be described thus: TGF-β Receptor II (RII WT) in vitro kinase reaction. The test is classed as biochemical. Particulars: 6×-HIS cytoplasmic kinase domain, 4 uM ATP, 30° C., 40 min. The procedure:
(§1) TGF-β Receptor I and II Purification and in vitro Kinase Reactions
(§2) For TGF-β Type I (RIT204D) and Type II (RII WT) Receptors: The 6×-HIS tagged cytoplasmic kinase domain of each receptor was expressed and purified from Sf9 insect cell lysates as briefly described below:
(§3) Cell pellets after 48-72 hrs of infection were lysed in lysis buffer (LB: 50 mM Tris pH 7.5, 150 mM NaCl, 50 mM NaF, 0.5% NP40 with freshly added 20 mM, β-mercaptoethanol, 10 mM imidazole, 1 mM PMSF, 1×EDTA-free Complete Protease Inhibitor (Boehringer Mannheim).
Cell lysates were clarified: by centrifugation and […] filtered prior to purification by Ni/NTA affinity chromatography (Qiagen).
Equilibrate with 10 CV of LB, load sample, wash with 10 CV RIPA buffer (50 mM Tris pH 7.5, 150 mM NaCl, 1% NP40, 1 mM EDTA, 0.25% sodium deoxycholate, added fresh 20 mM β-mercaptoethanol, 1 mM PMSF), wash with 10 CV LB, wash with 10 CV 1×KB (50 mM Tris pH 7.5, 150 mM NaCl, 4 mM MgCl2, 1 mM NaF, 2 mM β-mercaptoethanol), elute with a linear gradient of 1×KB containing 200 mM Imidazole.
Both enzymes were approximately 90% pure and had autophosphorylation activity.
(§4) Reactions: 170-200 nM enzyme in 1×KB, compound dilution series in 1×KB/16% DMSO (20 uM to 1 nM final concentration with 4% DMSO final concentration), reactions started by adding ATP mix (4 uM ATP/1 uCi ^33P-[…]-ATP final concentrations) in 1×KB.
(§5) Reactions were incubated at 30° C. for 1 hr RIT204D or 40 min for RII WT. Reactions were stopped and quantitated using standard TCA/BSA precipitation onto Millipore FB glass fiber filter plates and by liquid scintillation counting on a MicroBeta JET.

Test [3] concerns the target T3, TGF-β Type I (RIT204D) receptor (Homo sapiens, UniProt P36897, T204D).
T3 construct: The 6×-HIS tagged cytoplasmic kinase domain of each receptor was expressed and purified from Sf9 insect cell lysates; 6xHis; made in house; host or cells: Sf9 insect cells
T3 sequence (P36897 148-503 T204D limits assumed): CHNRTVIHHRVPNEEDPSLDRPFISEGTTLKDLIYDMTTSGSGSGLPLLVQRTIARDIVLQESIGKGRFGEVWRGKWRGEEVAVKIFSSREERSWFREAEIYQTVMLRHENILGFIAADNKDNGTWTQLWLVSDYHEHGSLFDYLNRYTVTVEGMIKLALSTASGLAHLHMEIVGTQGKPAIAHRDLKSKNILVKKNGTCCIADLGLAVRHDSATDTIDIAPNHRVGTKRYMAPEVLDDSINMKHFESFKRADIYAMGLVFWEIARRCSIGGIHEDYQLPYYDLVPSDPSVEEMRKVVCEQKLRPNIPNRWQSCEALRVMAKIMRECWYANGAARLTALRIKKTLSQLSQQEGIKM
In words: TGF-β Receptor I (RIT204D) in vitro kinase reaction. It is filed as biochemical. The note with it: 6×-HIS cytoplasmic kinase domain, 4 uM ATP, 30° C., 1 hr. The procedure:
as §1, §2, §3, §4, §5

Turning to `Cc1cccc(-c2nn3c(c2-c2ccnc4ccccc24)CC(c2ccc(F)cc2)C3)n1` (single isomer, unassigned) [4-[5-(4-Fluoro-phenyl)-2-(6-methyl-pyridin-2-yl)-5,6-dihydro-4H-pyrrolo[1,2-b]pyrazol-3-yl]-quinoline], in test [1], the IC50 – broadly, the concentration that inhibits the measured activity by half – is less than 20 µM. On to `Cc1cccc(-c2nn3c(c2-c2cccc4ccccc24)CCC3)n1` [2-(6-methyl-pyridin-2-yl)-3-naphthalen-1-yl-5,6-dihydro-4H-pyrrolo[1,2-b]pyrazole], for which, in test [1], the IC50 was less than 20 µM. As for `CN(C)CC(=O)Nc1ccc2c(-c3c(-c4ccccn4)nn4c3CCC4)ccnc2c1` [2-Dimethylamino-N-[4-(2-pyridin-2-yl-5,6-dihydro-4H-pyrrolo[1,2-b]pyrazol-3-yl)-quinolin-7-yl]-acetamide], the IC50 against p38α/SAPK2α was less than 20 µM. In test [1], `Cc1cccc(-c2nn3c(c2-c2ccnc4ccc(C(C)(C)O)cc24)CCC3)n1` [2-{4-[2-(6-Methyl-pyridin-2-yl)-5,6-dihydro-4H-pyrrolo[1,2-b]pyrazol-3-yl]-quinolin-6-yl}-propan-2-ol] returned an IC50 of less than 20 µM. In the case of `Clc1cc(-c2c(-c3ccccn3)nn3c2CCC3)ccn1` [3-(2-Chloro-pyridin-4-yl)-2-pyridin-2-yl-5,6-dihydro-4H-pyrrolo[1,2-b]pyrazole], the half-maximal inhibitory concentration (IC50) in test [1] is less than 20 µM. On to `Cc1cccc(-c2nn3c(c2-c2ccc4c(c2)OCO4)CCC3)n1` [3-Benzo[1,3]dioxol-5-yl-2-(6-methyl-pyridin-2-yl)-5,6-dihydro-4H-pyrrolo[1,2-b]pyrazole], for which the IC50 at p38α/SAPK2α was less than 20 µM. `c1ccc(-c2nn3c(c2-c2ccc4ccccc4c2)CCC3)nc1` [3-Naphthalen-2-yl-2-pyridin-2-yl-5,6-dihydro-4H-pyrrolo[1,2-b]pyrazole] registered an IC50 against p38α/SAPK2α of less than 20 µM. Turning to `OCCCSc1ccc2c(-c3c(-c4ccccn4)nn4c3CCC4)ccnc2c1` [3-[4-(2-Pyridin-2-yl-5,6-dihydro-4H-pyrrolo[1,2-b]pyrazol-3-yl)-quinolin-7-ylsulfanyl]-propan-1-ol], the IC50 (in test [2]; against p38α/SAPK2α) was less than 20 µM each time. Turning to `CNC(=O)c1ccc2c(-c3c(-c4ccccn4)nn4c3CCC4)ccnc2c1` [4-(2-Pyridin-2-yl-5,6-dihydro-4H-pyrrolo[1,2-H]pyrazol-3-yl)-quinoline-7-carboxylic acid methylamide], the IC50 (in test [3]; in test [2]; at p38α/SAPK2α) was less than 20 µM throughout. `O=C(NCCc1c[nH]cn1)c1ccc2c(-c3c(-c4ccccn4)nn4c3CCC4)ccnc2c1` [4-(2-Pyridin-2-yl-5,6-dihydro-4H-pyrrolo[1,2-b]pyrazol-3-yl)-quinoline-7-carboxylic acid [2-(1H-imidazol-4-yl)-ethyl]-amide] showed an IC50 on p38α/SAPK2α of less than 20 µM.

With `Fc1ccc(-c2nn3c(c2-c2ccnc4ccccc24)CCC3)cc1` [4-[2-(4-Fluoro-phenyl)-5,6-dihydro-4H-pyrrolo[1,2-b]pyrazol-3-yl]-quinoline], the IC50 against p38α/SAPK2α was less than 20 µM.

`Cc1cccc(-c2nn3c(c2-c2ccnc4ccc(C(=O)O)cc24)CCC3)n1` [4-[2-(6-Methyl-pyridin-2-yl)-5,6-dihydro-4H-pyrrolo[1,2-b]pyrazol-3-yl]-quinoline-6-carboxylic acid] returned an IC50 against p38α/SAPK2α of less than 20 µM.

On p38α/SAPK2α, `Cc1cccc(-c2nn3c(c2-c2ccnc4ccc(-c5ccc(F)cc5)cc24)CCC3)n1` [6-(4-Fluoro-phenyl)-4-[2-(6-methyl-pyridin-2-yl)-5,6-dihydro-4H-pyrrolo[1,2-b]pyrazol-3-yl]-quinoline] returned an IC50 of less than 20 µM. In turn, `CSc1ccc2nccc(-c3c(-c4ccccn4)nn4c3CCC4)c2c1` [6-Methylsulfanyl-4-(2-pyridin-2-yl-5,6-dihydro-4H-pyrrolo[1,2-b]pyrazol-3-yl)-quinoline] displayed an IC50 against p38α/SAPK2α of less than 20 µM. On the same count and under the same terms, to `c1ccc(-c2nn3c(c2-c2ccnc4cc(OCCCn5ccnc5)ccc24)CCC3)nc1` [7-(3-Imidazol-1-yl-propoxy)-4-(2-pyridin-2-yl-5,6-dihydro-4H-pyrrolo[1,2-b]pyrazol-3-yl)-quinoline] belongs less than 20 µM; to `Cc1cccc(-c2nn3c(c2-c2ccnc4cc(N)ccc24)CCC3)n1` [7-Amino-4-[2-(6-Methyl-pyridin-2-yl)-5,6-dihydro-4H-pyrrolo[1,2-b]pyrazol-3-yl]-quinoline], less than 20 µM; to `COc1ccc2c(-c3c(-c4ccccn4)nn4c3CCC4)ccnc2c1` [7-Methoxy-4-(2-pyridin-2-yl-5,6-dihydro-4H-pyrrolo[1,2-b]pyrazol-3-yl)-quinoline], less than 20 µM. On the same count and under the same terms, next, `CN1CCN(CCCOc2ccc3c(-c4c(-c5ccccn5)nn5c4CCC5)ccnc3c2)CC1` [7-[3-(4-Methyl-piperazin-1-yl)-propoxy]-4-(2-pyridin-2-yl-5,6-dihydro-4H-pyrrolo[1,2-b]pyrazol-3-yl)-quinoline]: less than 20 µM.

In turn, `Cc1cccc(-c2nn3c(c2-c2ccc(F)cc2)CC[C@@H]3CC#N)n1` [(R)-[3-(4-Fluoro-phenyl)-2-(6-methyl-pyridin-2-yl)-5,6-dihydro-4H-pyrrolo[1,2-b]pyrazol-6-yl]-acetonitrile] gave an IC50 at p38α/SAPK2α of less than 20 µM. As for `CN(C)CCCOc1ccc2c(-c3c(-c4ccccn4)nn4c3CCC4)ccnc2c1` [Dimethyl-{3-[4-(2-pyridin-2-yl-5,6-dihydro-4H-pyrrolo[1,2-b]pyrazol-3-yl)-quinolin-7-yloxy]-propyl}-amine], the IC50 in test [3] and in test [2] was less than 20 µM throughout.

`CN(C)CCNC(=O)COc1ccc2c(-c3c(-c4ccccn4)nn4c3CCC4)ccnc2c1` [N-(2-dimethylamino-ethyl)-2-[4-(2-pyridin-2-yl-5,6-dihydro-4H-pyrrolo[1,2-b]pyrazol-3-yl)-quinolin-7-yloxy]-acetamide]: the IC50 in test [3] and in test [2] was less than 20 µM throughout.
